Laboratory results as given in patent US9676723B2, “Factor XIa inhibitors” (Merck Sharp & Dohme Corp., priority 2014, dated 2017).
Counter-ions that a name gives are not always drawn.

molecular target: T1, human Factor XIa (Homo sapiens, UniProt P03951); assay: Factor XIa Assay (fluorogenic substrate Z-Gly-Pro-Arg-AFC hydrolysis); format: biochemical; conditions: purified human Factor XIa 40 pM; substrate Z-Gly-Pro-Arg-AFC 100 μM; 50 mM HEPES pH 7.4; read-out: hu Factor XIa Ki
T1 construct: purified human Factor XIa; purchased Sekisui Diagnostics
T1 sequence (P03951 388-625 limits assumed): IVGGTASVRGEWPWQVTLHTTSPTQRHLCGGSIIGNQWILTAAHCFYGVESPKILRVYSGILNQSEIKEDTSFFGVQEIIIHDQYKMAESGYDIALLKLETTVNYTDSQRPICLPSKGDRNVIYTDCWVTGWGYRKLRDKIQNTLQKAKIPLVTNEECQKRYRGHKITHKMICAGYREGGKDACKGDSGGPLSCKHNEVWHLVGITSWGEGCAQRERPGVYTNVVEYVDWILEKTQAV
T1 sequence (P03951 19-387 partner limits assumed): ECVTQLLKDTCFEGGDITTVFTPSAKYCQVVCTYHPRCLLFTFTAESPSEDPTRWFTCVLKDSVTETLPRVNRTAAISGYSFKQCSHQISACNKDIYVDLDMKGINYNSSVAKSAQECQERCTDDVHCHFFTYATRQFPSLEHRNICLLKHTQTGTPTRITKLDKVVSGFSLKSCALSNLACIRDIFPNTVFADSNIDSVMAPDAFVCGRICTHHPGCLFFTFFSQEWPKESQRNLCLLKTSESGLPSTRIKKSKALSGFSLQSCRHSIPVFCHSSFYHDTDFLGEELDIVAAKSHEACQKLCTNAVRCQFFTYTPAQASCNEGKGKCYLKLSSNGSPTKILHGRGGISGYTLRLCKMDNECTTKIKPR
Experimental: The effectiveness of compounds of the present invention as inhibitors of Coagulation Factor XIa can be determined using a relevant purified serine protease, and an appropriate synthetic substrate. The rate of hydrolysis of the chromogenic or fluorogenic substrate by the relevant serine protease was measured both in the absence and presence of compounds of the present invention. Assays were conducted at room temperature or at 37° C. […] A decrease in the rate of fluorescence change in the presence of inhibitor is indicative of enzyme inhibition. Such methods are known to one skilled in the art. The results of this assay are expressed as the inhibitory constant, Ki.
Factor XIa determinations were made in 50 mM HEPES buffer at pH 7.4 containing 150 mM NaCl, 5 mM CaCl2, and 0.1% PEG 8000 (polyethylene glycol; JT Baker or Fisher Scientific). Determinations were made using purified human Factor XIa at a final concentration of 40 pM (Sekisui Diagnostics) and the synthetic substrate, Z-Gly-Pro-Arg-AFC, TFA salt (Sigma #C0980) at a concentration of 100 μM.
Activity assays were performed by diluting a stock solution of substrate at least tenfold to a final concentration ≦0.1 Km into a solution containing enzyme or enzyme equilibrated with inhibitor. Times required to achieve equilibration between enzyme and inhibitor were determined in control experiments. Initial velocities of product formation in the absence (Vo) or presence of inhibitor (Vi) were measured. Assuming competitive inhibition, and that unity is negligible compared Km/[S], [I]/e, and [I]/e (where [S], [I], and e respectively represent the total concentrations, of substrate, inhibitor and enzyme), the equilibrium constant (Ki) for dissociation of the inhibitor from the enzyme can be obtained from the dependence of Vo/Vi on [I] shown in the following equation. Vo/Vi=1+[I]/Ki

SMILES	Ki [µM]
NCc1ccc2c(c1)CCN([C@@H](Cc1ccccc1)c1nc(Cl)c(-c3ccc(NC(=O)OC4CCCC4)cc3)[nH]1)C2=O [Example 15]	0.506
NCc1ccc2c(c1)CCN([C@@H](Cc1ccccc1)c1ncc(-c3ccc(C(=O)O)s3)[nH]1)C2=O [Example 5]	0.546
NCc1ccc2c(c1)CN([C@@H](Cc1ccccc1)C(=O)Nc1ccc(C(=O)O)cc1)C2=O [Example 3]	0.308
Cc1ccc(-c2ccc(NC(=O)[C@H](Cc3ccccc3)N3CCc4cc(CN)ccc4C3=O)cc2)o1 [Example 23]	1.08
COC(=O)Nc1ccc(-c2cnc([C@H](Cc3ccccc3)N3CCc4cc(CN)ccc4C3=O)[nH]2)cc1 [Example 2, (S)-METHYL (4-(2-(1-(6-(AMINOMETHYL)-1-OXO-3,4-DIHYDROISOQUINOLIN-2(1H)-YL)-2-PHENYLETHYL)-1H-IMIDAZOL-5-YL)PHENYL)CARBAMATE 2,2,2-TRIFLUOROACETATE]	0.116
Cc1nc2cc(NC(=O)[C@H](Cc3ccccc3)N3CCc4cc(CN)ccc4C3=O)ccc2s1 [Example 8]	0.907
NCc1ccc2c(c1)CCN([C@@H](Cc1ccccc1)C(=O)Nc1ccc3c(N)n[nH]c3c1)C2=O [Example 13]	0.151
CC(C)COC(=O)Nc1ccc(-c2[nH]c([C@H](Cc3ccccc3)N3CCc4cc(CN)ccc4C3=O)nc2Cl)cc1 [Example 14]	0.435
Cc1nsc2ccc(NC(=O)[C@H](Cc3ccccc3)N3CCc4cc(CN)ccc4C3=O)cc12 [Example 28]	1.47
Cc1nc2ccc(NC(=O)[C@H](Cc3ccccc3)N3CCc4cc(CN)ccc4C3=O)cc2s1 [Example 27]	0.284
NCc1ccc2c(c1)CCN([C@@H](Cc1ccccc1)C(=O)Nc1ccc(-c3cc[nH]n3)cc1)C2=O [Example 20]	0.0943
COC(=O)Nc1ccc(-c2[nH]c([C@H](Cc3ccccc3)N3CCc4cc(CN)ccc4C3=O)nc2Cl)cc1 [Example 6]	0.014
Cn1ccc(-c2ccc(NC(=O)[C@H](Cc3ccccc3)N3CCc4cc(CN)ccc4C3=O)cc2)n1 [Example 26]	0.207
NCc1ccc2c(c1)CCN([C@@H](Cc1ccccc1)c1ncc(-c3cccc(F)c3)[nH]1)C2=O [Example 10]	4.13
NCc1ccc2c(c1)CCN([C@@H](Cc1ccccc1)c1ncc(-c3ccc4c(N)n[nH]c4c3)[nH]1)C2=O [Example 12]	0.053
COC(=O)Nc1ccc(-c2cnc([C@H](Cc3ccccc3)N3CCc4c(ccc(CN)c4C4CC4)C3=O)[nH]2)cc1 [Example 29, (S)-methyl (4-(2-(1-(6-(aminomethyl)-5-cyclopropyl-1-oxo-3,4-dihydroisoquinolin-2(1H)-yl)-2-phenylethyl)-1H-imidazol-5-yl)phenyl)carbamate 2,2,2-trifluoroacetate]	0.198
NCc1ccc2c(c1)CCN([C@@H](Cc1ccccc1)C(=O)Nc1ccc3ccncc3c1)C2=O [Example 24]	1.08
NCc1ccc2c(c1)CCN(C(Cc1ccccc1)C(=O)Nc1ccc(C(=O)O)cc1)C2=O (centres unmarked) [Example 4]	0.176
Cc1nnc(-c2ccc(NC(=O)[C@H](Cc3ccccc3)N3CCc4cc(CN)ccc4C3=O)cc2)[nH]1 [Example 21]	0.254
NCc1ccc2c(c1)CCN([C@@H](Cc1ccccc1)C(=O)Nc1cccc(F)c1)C2=O [Example 9]	1.08
NCc1ccc2c(c1)CCN([C@@H](Cc1ccccc1)C(=O)Nc1ccc(C(=O)O)cc1)C2=O [Example 1, 4-({(2S)-2-[6-(aminomethyl)-1-oxo-3,4-dihydroisoquinolin-2(1H)-yl]-3-phenylpropanoyl}amino)benzoic acid trifluoroacetate]	0.044
COC(=O)Nc1ccc(-c2[nH]c([C@H](Cc3ccccc3)N3CCc4cc(CN)ccc4C3=O)nc2C)cc1 [Example 11]	0.084
NCc1ccc2c(c1)CCN([C@@H](Cc1ccccc1)C(=O)Nc1ccc(-c3c[nH]cn3)cc1)C2=O [Example 19]	0.0689
Cc1ncc(-c2ccc(NC(=O)[C@H](Cc3ccccc3)N3CCc4cc(CN)ccc4C3=O)cc2)o1 [Example 22]	0.24
NCc1ccc2c(c1)CCN([C@@H](Cc1ccccc1)C(=O)Nc1ccc(-c3cnc(C4CC4)o3)cc1)C2=O [Example 25]	0.221
NCc1ccc2c(c1)CCN([C@@H](Cc1ccccc1)C(=O)Nc1ccc3[nH]ncc3c1)C2=O [Example 7]	0.246
